For the test, the target named is T1, human farnesyl transferase (FTase) (Homo sapiens, UniProt P49354+P49356).
T1 construct: comprising the cytosolic fraction of homogenized brain tissue; from tissue; host or cells: brain tissue, cytosolic fraction (crude FTase)
As to the kind of experiment: in vitro inhibition of human FTase, farnesyl transferase (3H) scintillation proximity assay. The test is classed as biochemical. The text has this: The activity of the compounds of formula 1 and formula 2 as Ras farnesylation inhibitors may be determined by their ability, relative to a control, to inhibit Ras farnesyl transferase in vitro. An example of one such procedure is described below.
A crude preparation of human farnesyl transferase (FTase) comprising the cytosolic fraction of homogenized brain tissue is used for screening compounds in a 96-well assay format. […]
The assay used to measure in vitro inhibition of human FTase is a modification of the method described by Amersham LifeScience for using their Farnesyl transferase (3H) Scintillation Proximity Assay (SPA) kit (TRKQ 7010). FTase enzyme activity is determined in a volume of 100 μl containing 50 mM N-(2-hydroxy ethyl) piperazine-N-(2-ethane sulfonic acid) (HEPES), pH 7.5, 30 mM MgCl2, 20 mM KCl, 25 mM Na2HPO4, 5 mM dithiothreitol (DTT), 0.01% Triton X-100, 5% dimethyl sulfoxide (DMSO), […] of crude FTase, […] [3H]-famesyl pyrophosphate ([3H]-FPP; 36000 dpm/pmole, Amersham LifeScience), and 0.2 μM of biotinylated Ras peptide KTKCVIS (Bt-KTKCVIS) that is N-terminally biotinylated at its alpha amino group and was synthesized and purified by HPLC in house. […] The amount of radioactivity bound to the SPA beads is determined using a MicroBeta 1450 plate counter. […]

The record followed here is patent US6479513B2, “Anticancer compound and enantiomer separation method useful for synthesizing said compound” (Pfizer Inc., priority 2000, dated 2002).

In the case of `Cn1cncc1C(N)(c1ccc(Cl)nc1)c1ccc2c(c1)c(-c1cccc(Cl)c1)cc(=O)n2CC1CC1` (single isomer, unassigned; (+)) [Example 8, (+)-6-[Amino-(6-chloro-pyridin-3-yl)-(3-methyl-3H -imidazol-4-yl)-methyl]-4-(3-chloro-phenyl)-1-cyclopropylmethyl-1H-quinolin-2-one], the “activity in inhibiting the enzyme farnesyl protein transferase, relative to the levorotatory isomer” value (compared with the levorotatory isomer, figures not given) was “greater activity”. The IC50 (crude FTase (cytosolic fraction of brain tissue), [3H]-FPP, Bt-KTKCVIS, 45 minute incubation at 37° C., read-out: IC50 value for inhibiting farnesylation of the biotinylated KTKCVIS-peptide) is less than 500 nM.

A word on the IC50: it is the concentration that gives 50% inhibition.
